Our source for the MIC and MBC values is patent US9605013B2, “Derivatives of hemin with antibacterial and antiviral activity” (OBSCHESTVO S OGRANICHENNOI OTVETSTVENNOSTIYU …, priority 2011, dated 2017).

Holding throughout (assay): Antibacterial activity, serial dilutions in liquid MH medium
Assay type in all cases: cell-based

In assay [1] the test system is Bacillus subtilis BKM B-501. To be noted: for MIC: MH medium, 20 h, 37° C., 100% growth inhibition; for MBC: no colonies on agarized MH medium. The essentials:
(§1)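 Broth microdilution in Mueller-Hinton medium at 37 °C with stirring, using exponential-phase cultures seeded at 5×10^4 to 1×10^5 cells/mL with twofold serial compound dilutions. Growth inhibition read as A595 after 20 h, corrected for compound absorbance; MIC and MBC determined.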

The test system of assay [2] is Micrococcus luteus BKM Ac-2230. The following applies: for MIC: MH medium, 20 h, 37° C., 100% growth inhibition; for MBC: no colonies on agarized MH medium. An outline of the steps: as §1
For assay [3], the system named is Staphylococcus aureus 209P. To be noted: for MBC: no colonies on agarized MH medium. The essentials: as §1

By MIC is commonly meant the lowest concentration found to suppress growth. A low value points to a more susceptible organism. In general, MBC refers to the smallest concentration meeting the test's criterion for killing. A low value points to more potent killing.

“6,7-bis-[(Diamide N^α-L-Arginyl)-L-glutamyl]-Protohemin (IX)”: the MIC stood at 1.6 µM in assay [1] and 0.8 µM in assay [2]. For the same compound, the MBC in assay [1] turned out to be 1.6 µM; in assay [2], 0.8 µM; in assay [3] it was 25 µM.

In assay [1], “6,7-bis-(Amide N^α-Glycyl)-Protohemin (IX) [IV]” came in with an MIC of 1.6 µM and an MBC of 1.6 µM. Further, in assay [2], the MIC amounted to 0.8 µM and the MBC was 0.8 µM.

On to `C=CC1=C(C)c2cc3[n-]c(cc4[n-]c(cc5nc(cc1n2)C(C)=C5C=C)c(C)c4CCC(=O)N[C@@H](CCCNC(=N)N)C(N)=O)c(CCC(=O)N[C@@H](CCCNC(=N)N)C(N)=O)c3C.[Cl-].[Fe+3]` [II, 6,7-bis-(Amide N^α-Arginyl)-Protohemin (IX)], for which the MIC in assay [1] and in assay [2] was 0.8 µM throughout. Besides, the MBC in assay [1] worked out at 0.8 µM; in assay [2], 0.8 µM; in assay [3], 6.3 µM.

`C=CC1=C(C)c2cc3[n-]c(cc4[n-]c(cc5nc(cc1n2)C(C)=C5C=C)c(C)c4CCC(=O)N[C@@H](CO)C(=O)O)c(CCC(=O)N[C@@H](CO)C(=O)O)c3C.[Cl-].[Fe+3]` [VI, 6,7-bis-(N^α-Seryl]-Protohemin (IX)]: the MIC in assay [1] is 12.5 µM; in assay [2], 6.3 µM; in assay [3] (MH medium, 20 h, 37° C., 100% growth inhibition), 50 µM. Besides, the MBC in assay [1] and in assay [2] was 25 µM in each case.

Regarding `C=CC1=C(C)c2cc3[n-]c(cc4[n-]c(cc5nc(cc1n2)C(C)=C5C=C)c(C)c4CCC(=O)N[C@@H](CO)C(N)=O)c(CCC(=O)N[C@@H](CO)C(N)=O)c3C.[Cl-].[Fe+3]` [V, 6,7-bis-(Amide N^α-Seryl)-Protohemin (IX)], the MIC in assay [1] is 1.6 µM; in assay [2], 0.8 µM. In addition, the MBC in assay [1] was found to be 1.6 µM; in assay [2] it was 0.8 µM; in assay [3] it was 12.5 µM.
